US5545547A, “Enzymes as agricultural chemical adjuvants” (priority 1992, dated 1996)

What was measured:
Assay type in all cases: in vivo
[1] = tested on: various plants; assay: Greenhouse multispecies herbicide screen, statements on all tested plants; settings: High HYVAR; all other tested conditions; after two weeks
Excerpt: (§1) Several plant species including weeds and crops are used in these experiments.
(§2) A number of herbicides from various chemical classes were compared in a multispecies screen for percent chlorosis, necrosis and vigor reduction both with and without application of the enzyme from Pseudomonas mendocina ATCC 53552 described earlier. The herbicides were applied to various plants at the manufacturers recommended doses and at 10% and 40% of the recommended dose. Two different enzyme concentrations were used: 0.5 mg/ml (HE) and 0.05 mg/ml (LE) and applied at the rate of 40 gallons/acre. All spraying solutions were at pH 10 and contained 100 mm sodium phosphate each. […] All the experiments were carried out in a greenhouse.

[2] = tested on: Beefsteak Tomato seedlings; assay: HYVAR uptake by whole plants, effect of macerating enzymes (GC219); parameters: key: -=No phytotoxicity; +=Some phytotoxicity seen in area of treatment.; ++=Phytotoxicity seen outside area of treatment
Description: 13-16 day old Beefsteak Tomato seedlings were treated with solutions of HYVAR herbicides [5-bromo-6-methyl-3-(1-methylpropyl)-2,4-(1H,3H)-pyrimidinedione] and GC219. Solutions of Hyvar and GC219 were made up on DI H2 O and 1% ethanol and adjusted with 0.1N HCL to a final pH of 4.0. 10 ul of solution was applied to each cotyledon and 15 ul to each secondary pentafoliate leaflet. 10 tomato seedlings were used for each test solutions. Observations were made daily after treatment for 4 days.
HYVAR herbicide [5-bromo-6-methyl-3-(1-methylpropyl)-2,4-(1H,3H)-pyrimidinedione] was diluted 1:200 or 1:400 for each experiment.

[3] = tested on: Alfalfa; assay: Greenhouse multispecies herbicide screen with/without P. mendocina enzyme
Description: as §1
as §2, with “The herbicides were applied to various plants at the manufacturers recommended doses and at 10% and 40% of the recommended dose.” left out
(§3) Chlorosis--figures represent percent of plants showing chlorosis.
(§4) Necrosis--figures represent percent of plants showing necrosis.
(§5) Vigor--figures represent percent of plants showing decreased vigor.
(§6) Phytotoxicity--figures represent the average percent of chlorosis, necrosis, and vigor for a given sample.

[4] = tested on: Barnyard Grass; assay: as above
Description: as §1
as §2, with “The herbicides were applied to various plants at the manufacturers recommended doses and at 10% and 40% of the recommended dose.” left out
as §3, §4, §5, §6

[5] = HYVAR 10% dose, High Enzyme, one week after treatment
[6] = HYVAR 10% dose, Low Enzyme, one week after treatment
[7] = HYVAR 10% dose, No Enzyme, one week after treatment
[8] = HYVAR 18%, High Enzyme, two weeks after treatment
[9] = HYVAR 18%, Low Enzyme, two weeks after treatment
[10] = HYVAR 18%, No Enzyme, two weeks after treatment
[11] = HYVAR 40% dose, High Enzyme, one week after treatment
[12] = HYVAR 40% dose, Low Enzyme, one week after treatment
[13] = HYVAR 40% dose, No Enzyme, one week after treatment
[14] = HYVAR 100% dose, No Enzyme, one week after treatment

SMILES: CCC(C)n1c(=O)[nH]c(C)c(Br)c1=O (stereo not shown) [HYVAR, 5-bromo-6-methyl-3-(1-methylpropyl)-2,4-(1H,3H)-pyrimidinedione]
- kill [1]: 100%
- PHYTOTOXICITY RATING ([2]; HYVAR (1:400 dilution), Day 2): -
- PHYTOTOXICITY RATING ([2]; HYVAR (1:400 dilution), Day 3): -
- PHYTOTOXICITY RATING ([2]; HYVAR alone (1:200 dilution), Day 1): -
- PHYTOTOXICITY RATING ([2]; HYVAR alone (1:200 dilution), Day 2): +
- PHYTOTOXICITY RATING ([2]; first experiment (1:200), HYVAR + 6.28 mg/ml GC219, Day 1): +
- PHYTOTOXICITY RATING ([2]; first experiment (1:200), HYVAR + 6.28 mg/ml GC219, Day 2): ++
- PHYTOTOXICITY RATING ([2]; second experiment (1:400), HYVAR + 6.28 mg/ml GC219, Day 2): +
- PHYTOTOXICITY RATING ([2]; second experiment (1:400), HYVAR + 6.28 mg/ml GC219, Day 3): ++
- PHYTOTOXICITY RATING ([2]; second experiment (1:400), HYVAR + 12.6 mg/ml GC219, Day 2): ++
- PHYTOTOXICITY RATING ([2]; second experiment (1:400), HYVAR + 12.6 mg/ml GC219, Day 3): ++
- CHL (chlorosis) [3, 5]: 18%
- NEC (necrosis) [3, 5]: 0%
- PHY (phytotoxicity) [3, 5]: 10%
- VIG (vigor) [3, 5]: 10%
- CHL (chlorosis) [3, 6]: 50%
- NEC (necrosis) [3, 6]: 5%
- PHY (phytotoxicity) [3, 6]: 28%
- VIG (vigor) [3, 6]: 30%
- CHL (chlorosis) [3, 7]: 10%
- NEC (necrosis) [3, 7]: 5%
- PHY (phytotoxicity) [3, 7]: 8%
- VIG (vigor) [3, 7]: 10%
- CHL (chlorosis) [3, 8]: 100%
- NEC (necrosis) [3, 8]: 100%
- PHY (phytotoxicity) [3, 8]: 100%
- VIG (vigor) [3, 8]: 100%
- CHL (chlorosis) [3, 9]: 100%
- NEC (necrosis) [3, 9]: 100%
- PHY (phytotoxicity) [3, 9]: 100%
- VIG (vigor) [3, 9]: 100%
- CHL (chlorosis) [3, 10]: 55%
- NEC (necrosis) [3, 10]: 58%
- PHY (phytotoxicity) [3, 10]: 57%
- VIG (vigor) [3, 10]: 58%
- CHL (chlorosis) [3, 11]: 30%
- NEC (necrosis) [3, 11]: 13%
- PHY (phytotoxicity) [3, 11]: 24%
- VIG (vigor) [3, 11]: 30%
- CHL (chlorosis) [3, 12]: 30%
- NEC (necrosis) [3, 12]: 30%
- PHY (phytotoxicity) [3, 12]: 37%
- VIG (vigor) [3, 12]: 50%
- CHL (chlorosis) [3, 13]: 25%
- NEC (necrosis) [3, 13]: 5%
- PHY (phytotoxicity) [3, 13]: 15%
- VIG (vigor) [3, 13]: 15%
- CHL (chlorosis) [3, 14]: 50%
- NEC (necrosis) [3, 14]: 10%
- PHY (phytotoxicity) [3, 14]: 37%
- VIG (vigor) [3, 14]: 50%
- CHL (chlorosis) [4, 5]: 25%
- NEC (necrosis) [4, 5]: 10%
- PHY (phytotoxicity) [4, 5]: 28%
- VIG (vigor) [4, 5]: 50%
- CHL (chlorosis) [4, 6]: 50%
- NEC (necrosis) [4, 6]: 18%
- PHY (phytotoxicity) [4, 6]: 39%
- VIG (vigor) [4, 6]: 50%
- CHL (chlorosis) [4, 7]: 30%
- NEC (necrosis) [4, 7]: 25%
- PHY (phytotoxicity) [4, 7]: 28%
- VIG (vigor) [4, 7]: 30%
- CHL (chlorosis) [4, 8]: 95%
- NEC (necrosis) [4, 8]: 88%
- PHY (phytotoxicity) [4, 8]: 90%
- VIG (vigor) [4, 8]: 88%
- CHL (chlorosis) [4, 9]: 88%
- NEC (necrosis) [4, 9]: 85%
- PHY (phytotoxicity) [4, 9]: 86%
- VIG (vigor) [4, 9]: 85%
- CHL (chlorosis) [4, 10]: 85%
- NEC (necrosis) [4, 10]: 78%
- PHY (phytotoxicity) [4, 10]: 80%
- VIG (vigor) [4, 10]: 78%
- CHL (chlorosis) [4, 11]: 55%
- NEC (necrosis) [4, 11]: 50%
- PHY (phytotoxicity) [4, 11]: 45%
- VIG (vigor) [4, 11]: 30%
- CHL (chlorosis) [4, 12]: 55%
- NEC (necrosis) [4, 12]: 60%
- PHY (phytotoxicity) [4, 12]: 59%
- VIG (vigor) [4, 12]: 63%
- CHL (chlorosis) [4, 13]: 65%
- NEC (necrosis) [4, 13]: 30%
- PHY (phytotoxicity) [4, 13]: 50%
- VIG (vigor) [4, 13]: 55%
- CHL (chlorosis) [4, 14]: 50%
- NEC (necrosis) [4, 14]: 60%
- PHY (phytotoxicity) [4, 14]: 62%
- VIG (vigor) [4, 14]: 75%
